The results in this text go back to patent US12202844B2, “MAP4K1 inhibitors” (Blueprint Medicines Corporation, priority 2021, dated 2025).

One assay deals with T1, MAP4K1 (HPK1) (Homo sapiens, UniProt Q92918).
T1 construct: purchased Invitrogen
In words: Inhibition of MAP4K1 biochemical enzymatic activity (EZReader 2 electrophoretic mobility shift). The note with it: HPK1 (Invitrogen), S6K2tide 1.5 μM, 120 min; ATP 26 μM or 1000 μM (not given). An outline of the steps: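 Untreated enzyme (0.1-15 nM) was incubated with 1.5 μM fluorescent peptide and 20-1000 μM ATP (apparent Km or 1 mM) in HEPES pH 7.5, MgCl2, DTT, Brij 35 at 25° C. for 60-180 min, with 1% DMSO and a 10-point 4-fold compound series. After an EDTA stop, product/substrate peptide peak ratio was read by mobility shift.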
A general note: In EMSA bound probe runs differently from free probe, usually more slowly.

Assay [1] concerns Primary T Cell (expanded CD3+ T cells). In words: T cell enhancement of cytokines: IL2 measurement (HTRF) in stimulated expanded CD3+ T cells. The assay is classed as cell-based, human. The following applies: Homo sapiens, T-cell, 24 h, plate-bound anti-CD3 and soluble anti-CD28, 24 h, IL2 by HTRF; read-out: IL-2 Primary T Cell EC50. Put shortly: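 Healthy-donor T cells (95-98% CD3+) expanded 10-14 days with IL2 and CD3/CD28 beads, then cryopreserved. 100K cells/well in X-VIVO 10 serum-free medium were stimulated with plate-bound anti-CD3 plus soluble anti-CD28 with compound at various concentrations for 24 h. Secreted IL2 measured by HTRF after 24 h antibody incubation.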
A general note: TR-FRET usually uses a lanthanide donor and a delayed reading to cut background.

T1 sequence (Q92918 whole entry): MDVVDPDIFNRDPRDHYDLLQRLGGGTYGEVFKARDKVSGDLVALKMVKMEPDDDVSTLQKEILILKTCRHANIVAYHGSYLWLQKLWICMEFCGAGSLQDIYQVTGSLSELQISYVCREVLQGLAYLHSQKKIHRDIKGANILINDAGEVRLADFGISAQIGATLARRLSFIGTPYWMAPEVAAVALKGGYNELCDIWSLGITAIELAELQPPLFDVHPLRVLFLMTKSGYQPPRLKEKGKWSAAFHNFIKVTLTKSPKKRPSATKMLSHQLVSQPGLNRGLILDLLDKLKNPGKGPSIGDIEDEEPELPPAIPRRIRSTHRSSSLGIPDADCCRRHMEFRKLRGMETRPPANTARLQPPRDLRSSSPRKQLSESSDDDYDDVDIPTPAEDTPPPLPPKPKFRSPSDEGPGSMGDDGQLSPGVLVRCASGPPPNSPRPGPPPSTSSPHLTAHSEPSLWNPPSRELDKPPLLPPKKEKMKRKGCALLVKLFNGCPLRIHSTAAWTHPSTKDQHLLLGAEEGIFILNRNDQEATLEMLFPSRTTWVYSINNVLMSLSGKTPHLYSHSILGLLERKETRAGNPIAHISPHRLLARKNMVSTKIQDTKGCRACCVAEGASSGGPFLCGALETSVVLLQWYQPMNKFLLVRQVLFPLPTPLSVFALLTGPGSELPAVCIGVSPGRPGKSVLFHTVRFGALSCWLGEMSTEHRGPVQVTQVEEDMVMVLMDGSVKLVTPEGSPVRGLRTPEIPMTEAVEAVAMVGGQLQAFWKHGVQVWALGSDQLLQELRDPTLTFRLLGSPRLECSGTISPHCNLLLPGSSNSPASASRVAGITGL

A word on the IC50: it is the concentration at which inhibition is half-maximal. A word on the EC50: it is the concentration giving half of the maximal effect. With `C[C@H](C[C@@H](C)S(C)(=O)=O)Oc1ncc(C(C)(C)N)c2cc(Nc3ccc4c(n3)[C@@H](C)C(C)(C)OC4=O)ncc12` [Compound 91], at MAP4K1 (HPK1), the IC50 is 0.22 nM. Also, the EC50 in assay [1] was found to be 24 nM.

`CC[C@@](C)(N)c1cnc(O[C@H](C)CCS(C)(=O)=O)c2cnc(Nc3ccc4c(n3)[C@@H](C)C(C)(C)OC4=O)cc12` [Compound 94]: the IC50 at MAP4K1 (HPK1) was found to be 0.14 nM. For the same compound, in assay [1], the EC50 came out at 26 nM.

For `CC[C@@](C)(N)c1cnc(O[C@@H](C)CCS(C)(=O)=O)c2cnc(Nc3ccc4c(n3)[C@@H](C)C(C)(C)OC4=O)cc12` [Compound 95], the IC50 on MAP4K1 (HPK1) turned out to be 0.08 nM. Further, the EC50 in assay [1] was found to be 52 nM.

In the case of `C[C@@H]1c2nc(Nc3cc4c(C(C)(C)N)cnc(O[C@H]5C[C@@H](S(=O)(=O)C6CC6)C5)c4cn3)ccc2C(=O)OC1(C)C` [Compound 102], the IC50 on MAP4K1 (HPK1) stood at 0.14 nM. The EC50 in assay [1] was 15 nM.

Regarding `CC[C@@](C)(N)c1cnc(O[C@H](C)CCS(C)(=O)=O)c2cnc(Nc3ccc4c(n3)C3(CC3)C(C)(C)OC4=O)cc12` [Compound 105], on MAP4K1 (HPK1), the IC50 was found to be 0.37 nM. Moreover, the EC50 in assay [1] turned out to be 41 nM.

On to `CC[C@@](C)(N)c1cnc(O[C@H]2C[C@@H](S(=O)(=O)CC)C2)c2cnc(Nc3ccc4c(n3)[C@@H](C)C(C)(C)OC4=O)cc12` [Compound 117], for which the IC50 on MAP4K1 (HPK1) amounted to 0.05 nM. In addition, the EC50 in assay [1] came to 6 nM.

With `C[C@@H]1c2nc(Nc3cc4c(C(C)(C)N)cnc(O[C@H]5C[C@@H](S(=O)(=O)N(C)C)C5)c4cn3)ccc2C(=O)OC1(C)C` [Compound 118], at MAP4K1 (HPK1), the IC50 turned out to be 0.11 nM. The EC50 in assay [1] came out at 27 nM.

For `CCS(=O)(=O)[C@H]1C[C@@H](Oc2ncc([C@](C)(N)COC)c3cc(Nc4ccc5c(n4)[C@@H](C)[C@H](C)OC5=O)ncc23)C1` [Compound 122], on MAP4K1 (HPK1), the IC50 was 0.1 nM. Further, the concentration giving a half-maximal response (EC50) in assay [1] was found to be 27 nM.

Regarding `COC[C@@](C)(N)c1cnc(O[C@H]2C[C@@H](S(C)(=O)=O)C2)c2cnc(Nc3ccc4c(n3)[C@@H](C)C(C)(C)OC4=O)cc12` [Compound 123], the IC50 on MAP4K1 (HPK1) came to 0.16 nM. The EC50 in assay [1] was 34 nM.

For `CC[C@@](C)(N)c1cnc(O[C@H](C)C[C@@H](C)S(=O)(=O)CC)c2cnc(Nc3ccc4c(n3)[C@@H](C)[C@H](C)OC4=O)cc12` [Compound 127, (7S,8R)-2-((5-((R)-2-Aminobutan-2-yl)-8-(((2R,4R)-4-(ethylsulfonyl)pentan-2-yl)oxy)-2,7-naphthyridin-3-yl)amino)-7,8-dimethyl-7,8-dihydro-5H-pyrano[4,3-b]pyridin-5-one], the IC50 at MAP4K1 (HPK1) came out at 0.12 nM. For the same compound, the EC50 in assay [1] turned out to be 10 nM.

As for `CCS(=O)(=O)[C@H](C)C[C@@H](C)Oc1ncc(C(C)(C)N)c2cc(Nc3ccc4c(n3)[C@@H](C)C(C)(C)OC4=O)ncc12` [Compound 128], the IC50 on MAP4K1 (HPK1) worked out at 0.16 nM. Besides, the concentration giving a half-maximal response (EC50) in assay [1] was 36 nM.

Turning to `CC[C@@](C)(N)c1cnc(O[C@H](C)C[C@@H](C)S(C)(=O)=O)c2cnc(Nc3ccc4c(n3)[C@@H](C)C(C)(C)OC4=O)cc12` [Compound 129], on MAP4K1 (HPK1), the IC50 amounted to 0.16 nM. Moreover, the EC50 in assay [1] stood at 7 nM.

As to `CC[C@@](C)(N)c1cnc(O[C@@H](C)CCS(=O)(=O)CC)c2cnc(Nc3ccc4c(n3)[C@@H](C)C(C)(C)OC4=O)cc12` [Compound 132], on MAP4K1 (HPK1), the IC50 worked out at 0.19 nM. The EC50 in assay [1] is 66 nM.

For `CC[C@@](C)(N)c1cnc(O[C@H](C)C[C@@H](C)S(C)(=O)=O)c2cnc(Nc3ccc4c(n3)C3(CC3)C(C)(C)OC4=O)cc12` [Compound 136, 2′-((5-((R)-2-Aminobutan-2-yl)-8-(((2R,4R)-4-(methylsulfonyl)pentan-2-yl)oxy)-2,7-naphthyridin-3-yl)amino)-7′,7′-dimethyl-5′H,7′H-spiro[cyclopropane-1,8′-pyrano[4,3-b]pyridin]-5′-one], at MAP4K1 (HPK1), the IC50 is 0.28 nM. Besides, in assay [1], the EC50 was 10 nM.

`COC[C@@](C)(N)c1cnc(O[C@H]2C[C@H](CS(C)(=O)=O)C2)c2cnc(Nc3ccc4c(n3)[C@@H](C)C(C)(C)OC4=O)cc12` [Compound 139]: the IC50 at MAP4K1 (HPK1) stood at 0.36 nM. In addition, in assay [1], the EC50 was 74 nM.

For the compound `COC[C@@](C)(N)c1cnc(O[C@H]2C[C@@H](CS(C)(=O)=O)C2)c2cnc(Nc3ccc4c(n3)[C@@H](C)C(C)(C)OC4=O)cc12` [Compound 140], the IC50 on MAP4K1 (HPK1) is 0.33 nM. The EC50 in assay [1] worked out at 33 nM.

For `CCS(=O)(=O)[C@H]1C[C@@H](Oc2ncc([C@](C)(N)COC)c3cc(Nc4ccc5c(n4)[C@@H](C)C(C)(C)OC5=O)ncc23)C1` [Compound 141], the IC50 on MAP4K1 (HPK1) came out at 0.15 nM. The EC50 in assay [1] was determined as 15 nM.

`CC[C@@](C)(N)c1cnc(O[C@H](C)C[C@@H](C)S(=O)(=O)CC)c2cnc(Nc3ccc4c(n3)[C@@H](C)C(C)(C)OC4=O)cc12` [Compound 143]: the IC50 on MAP4K1 (HPK1) worked out at 0.15 nM. The EC50 in assay [1] is 16 nM.

Regarding `COC[C@@](C)(N)c1cnc(O[C@H](C)C[C@@H](C)S(C)(=O)=O)c2cnc(Nc3ccc4c(n3)[C@@H](C)C(C)(C)OC4=O)cc12` [Compound 144], the IC50 at MAP4K1 (HPK1) turned out to be 0.23 nM. The EC50 in assay [1] came out at 39 nM.

As for `COC[C@@](C)(N)c1cnc(O[C@H]2C[C@@H](S(=O)(=O)C3CC3)C2)c2cnc(Nc3ccc4c(n3)[C@@H](C)C(C)(C)OC4=O)cc12` [Compound 145], the concentration for half-maximal inhibition (IC50) on MAP4K1 (HPK1) turned out to be 0.21 nM. Moreover, the EC50 in assay [1] came out at 32 nM.

Turning to `COC[C@@](C)(N)c1cnc(O[C@H]2C[C@@H](S(C)(=O)=O)C2)c2cnc(Nc3ccc4c(n3)C3(CC3)C(C)(C)OC4=O)cc12` [Compound 162], at MAP4K1 (HPK1), the IC50 came out at 0.3 nM. In addition, the EC50 in assay [1] stood at 32 nM.
